We go through 2 molecules from patent publication US20040248825A1, “Use of neuraminidase inhibitors to prevent flu associated bacterial infections” (St. Jude Children's Research Hospital, priority 2001, published 2004).

Entries after “also recorded” stand apart in the source; their conditions may differ. Read-outs that look alike come from different tables or passages of the source.

For data set [1] the following is noted: cited from earlier work.
Data set [2] deals with influenza A/PR/8/34 (H1N1) followed by S. pneumoniae D39. The data set can be described thus: Treatment study: sequential dual infection, oseltamivir begun 48 hours after influenza infection, pneumococcal challenge on day 7. Particulars: for Survival (Mantel-Cox Chi-Squared test on Kaplan-Meier survival data): oseltamivir 10 mg/kg/day BID begun 48 h after influenza, until D39 challenge on day 7, p<0.01 vs water control; for Mean viral lung titer / Weight Loss (% of Baseline) / Mean bacterial lung titer: treatment study; for Mean bacterial lung titer: day 8, 24 hours after pneumococcal challenge. Format: in vivo, Balb/cByJ mice.

Data set [3] shares this test system. Nature of the data set: Chemoprophylaxis study: mice infected with influenza virus on day 0, oseltamivir begun 4 hours before infection, pneumococcal challenge on day 7. Format: in vivo, Balb/cByJ mice. Particulars: for Weight Loss (% of Baseline) / Mean viral lung titer: prophylaxis study.

`CCOC(=O)C1=C[C@@H](OC(CC)CC)[C@H](NC(C)=O)[C@@H](N)C1` [oseltamivir, oseltamivir phosphate]: in data set [1] (oral), the Half-life was 6 to 10 h. Also, the Systemic bioavailability in data set [1] (oral) is given as 80%. Further, the Lung histopathology entry in data set [2] (lung tissue on day 8, untreated controls: diffuse, severe infection disseminated throughout both lungs) is “lobar bronchopneumonia infection that is confined to defined regions of the lungs”. Moreover, the “Survival (Mantel-Cox Chi-Squared test on Kaplan-Meier survival data)” value is recorded as “significantly prolonged” in data set [2]; “prolongs survival” in data set [2] (listed as Oseltamivir); “significantly prolonged; also recorded: prolongs survival” in data set [3] (oseltamivir 10 mg/kg/day BID for 5 days from 4 h before influenza, 100 TCID50 PR8 day 0, 100 CFU D39 day 7, p<0.005 vs water control). Also, the Median survival is 5 days in data set [2] (oseltamivir group of the treatment study, control 1 day) and 7 days in data set [3] (prophylaxis group, after pneumococcal challenge, control <1 day). In addition, the “Weight lost by surviving mice, % of their day 7 weight” value in data set [2] (treatment group, in 48 hours after pneumococcal challenge, control 5%) was found to be 4%; in data set [3] (prophylaxis group, in 48 hours after pneumococcal challenge, control 9.5%) it was 7.5%. The “Survival (number survived/total)” value is recorded as 3/10 in data set [2] (treatment group, control 0/9) and 5/10 in data set [3] (prophylaxis group, followed 21 days, control 0/10). The “Mean viral lung titer” value was determined as 6.8 log10 in data set [2] (day 3); 6.84 log10 in data set [2] (day 3, listed as Oseltamivir); 5.4 log10 in data set [2] (day 7); 5.42 log10 in data set [2] (day 7, listed as Oseltamivir); 4.3 log10 in data set [3] (day 3, log10/ml TCID50 in MDCK cells); 4.32 log10 in data set [3] (day 3, log10/ml TCID50 in MDCK cells, listed as Oseltamivir). In addition, in data set [3] (day 7, before pneumococcal challenge, log10/ml TCID50), the “Mean viral lung titer” value turned out to be 3.84 log10. Further, the “Weight Loss (% of Baseline)” value in data set [2] (day 3) was 7.6 % of Baseline; in data set [2] (day 7), 23 % of Baseline; in data set [3] (day 3), 4.0 % of Baseline; in data set [3] (day 7), 9 % of Baseline; in data set [3] (day 7, listed as Oseltamivir), 8.7 % of Baseline. Moreover, the “Mean bacterial lung titer” value in data set [2] came out at 7.1 log10 CFU/ml; in data set [2] (listed as Oseltamivir), 7.08 log10 CFU/ml.
With `CC(=O)N[C@H]1[C@H]([C@H](O)[C@H](O)CO)OC(C(=O)O)=C[C@@H]1N=C(N)N` [Zanamivir, zanamivir], the “Fraction of inhaled drug that reaches the lungs” value in data set [1] (dry powder for inhalation) is “approx. 20%”. Moreover, in data set [1] (in vivo), the Gastrointestinal absorption entry was “poorly absorbed” and the Half-life is 2.5 to 5 h.
